Assays:
NO in exhaled air [1] = assay: Nitrate loading: NO in orally exhaled air, single-breath chemiluminescence; format: in vivo, humans
Description: (§1) Ten healthy non-smoking subjects, age 23-43, were included in the study. The NO measurements were made with a chemiluminescense technique according to the recommendations recently described in the ERS Task Force Report (Kharitonov et al., 1997). The values of NO concentration were then registered in a computer software program together with the values of flow and pressure, measured with a pneunotachygraf, and calculations of these parameters were presented on a screen.
The following describes briefly the “single-breath” method for orally exhaled air. Compressed NO free air was continuously flowing into a non-diffusing gas collection bag, 100 l capacity (Hans Rudolph Inc.), at a rate of 2-3 l/min. The bag was connected via a tube to a Y-piece with a one-way valve, which in turn was adapted to a mouthpiece. Before the measurements the subjects inhaled NO free air through the mouthpiece and were asked to hold their breath for 10 s while they put their tongue into the mouthpiece's opening, in order to prevent NO from diffusing out. Then the subjects exhaled through the mouthpiece at a flow rate of about 0.15 l/s against a resistance of 50 cmH2O/l/s (Hans Rudolph Inc.), giving rise to an oral pressure of 8-10 cmH2O, for a period of 20 s. The exhaled air went out through the other one-way valve in the Y-piece leading on to a linear pneumotachymeter (Hans Rudolph Inc.), where the values of flow and pressure were registered and transformed into digital signals recorded by a computer software program (Medical Breath Analyser™ from Aerocrine AB, Sweden). The recordings were instantly visualized on a computer screen, which enabled the subjects to maintain a certain flow (i.e. 0.15 l/s), adjusting the exhalation to the flow curve. A fraction of the exhaled air was aspirated into the NO analyzer (Eco Physics Inc., Model CLD 700 AL) at a flow rate of approximately 0.5 l/min, through a 110-cm narrow-bore and Teflon®-coated tube connected to the mouthpiece. The detected NO levels were passed on to the computer and integrated with the figures for flow and pressure for calculation of NO release rate (pmol/s) and NO amount (pmol). NO release was calculated by the formula: NO-conc×Q=pmol/s×l/s=pmol/s. The conversion of NO-conc in ppb to a molecular unit goes via the fact that the volume of 1 mol of NO takes up 24.445 liters at normal temperature and pressure. Given this 1 ppb NO equals 40.908 pM. At the flow of 0.15 l/s and e.g. a NO-conc of 10 ppb the NO release equals 67 pmol/s. The use of NO-release, instead of NO-concentration as a registration unit, has the advantage of taking the flow rate into account, whereas in the use of NO-concentration the exhalation flow is not taken into consideration. In addition to the curves for flow and pressure two curves for NO concentration and NO release were plotted on the screen and calculated mean values were presented for the last 40% of the breath, representing the plateau phase. NO amount was also presented for the first 40%, representing the area under curve for the peak. […]
Changes in NO levels were analysed by using non-parametric ANOVA for paired and repeated measures with subsequent Dunn's post-test as offered by InStat from GraphPad Software. Nitrate and nitrite concentrations in the saliva were analysed by the non-parametric method of […] for paired measurements, using the same software. […]

nasal NO = assay: Nasal NO after nitrate loading; format: in vivo, humans; conditions: 5-180 min after nitrate loading
Description: To look into nasal NO levels a somewhat new approach taking advantage of the set-up for measurements in exhaled air was used. A “nose-olive”, tried out individually for a tight fitting to the subject's nostrils, was attached to the Teflon®-coated tube leading in to the NO-analyzer. The olive was then placed in one of the nostrils letting the NO analyzer aspirate air from the nasal cavity. Even though the subjects kept breathing through their mouth the NO concentrations oscillated with every breath, pointing to a leakage of NO from the nose to the oral cavity. The subjects were asked to take a deep breath and exhale through the mouthpiece against the same resistance as above, while the olive still was sampling from the nose. The oscillations of the NO values then ceased and the concentrations increased to a stable plateau, visualized on the computer screen. The time for exhalation was set to 20 s. which was well sufficient to reach a plateau. A mean value of the NO concentration during the last 40% of the exhalation, i.e. 8 s. was presented by the computer program and included in the protocol. […]
An amount of 400 mg potassium nitrate was dissolved in a cup of distilled water and then swallowed down. […] NO in exhaled air was measured first without and then with a breathhold, as mentioned above.

NO in exhaled air [2] = assay: Mouthwash after nitrate loading, NO in exhaled air; format: in vivo, humans
Procedure: The experiment was terminated with a mouthwash of sodium bicarbonate after 180 min with a following single-breath measurements. This to examine whether the mouthwash's possible reduction of the NO formation would be enhanced at a stage when one would expect high levels of NO. For mouthwash procedure see below.
In addition to the mouthwash with sodium bicarbonate after […], the effects of chlorhexidine was studied at a stage when one could expect larger amounts of nitrite in the saliva. This was also done in a separate experiment, on a separate day, not to interfere with the results of the original nitrate loading study. Five single-breaths with a breathhold were carried out to obtain a reliable baseline. Thereafter a load of 400 mg potassium nitrate was ingested, as described above. However, to facilitate this experiment for the subjects there was no demand for fasting. Five additional single-breaths were performed 90 min later—to get representative mean values of NO after nitrate ingestion. The subjects then rinsed their mouths with 2.5 cl chlorhexidine acetate 0.2% for 30 s and performed a NO measurement immediately afterwards. The single-breath procedure was also repeated 2, 5, 10, 20 and 30 min after the mouthwash.

exhaled NO output = assay: Mouthwash trials: NO output in exhaled air; format: in vivo, humans; conditions: for effect on NO output: 30 s mouthwash with 25 ml
Procedure: Experimental protocol: Exhaled NO was measured at an exhalation flow rate of 100 ml/s and the NO output was calculated. Measurements were repeated 3 times at each time point and the median value was used. After baseline measurements, the test subjects (n=3) were asked to rinse their mouth with 25 ml of different solutions during 30 s whereafter the solution was spat out All solutions were made up in distilled water. Exhaled NO measurements were repeated directly after, and 5, 15 and 30 min after the mouthwash procedure. Results are given as mean relative changes in NO output compared to baseline measurements.

NO in exhaled air [3] = assay: Mouthwashes and NO in exhaled air; format: in vivo, humans
Description: as §1
The following describes briefly the “single-breath” method for orally exhaled air. Compressed NO free air was continuously flowing into a non-diffusing gas collection bag, 100 l capacity (Hans Rudolph Inc.), at a rate of 2-3 l/min. The bag was connected via a tube to a Y-piece with a one-way valve, which in turn was adapted to a mouthpiece. Before the measurements the subjects inhaled NO free air through the mouthpiece and were asked to hold their breath for 10 s while they put their tongue into the mouthpiece's opening, in order to prevent NO from diffusing out. Then the subjects exhaled through the mouthpiece at a flow rate of about 0.15 l/s against a resistance of 50 cmH2O/l/s (Hans Rudolph Inc.), giving rise to an oral pressure of 8-10 cmH2O, for a period of 20 s. The exhaled air went out through the other one-way valve in the Y-piece leading on to a linear pneumotachymeter (Hans Rudolph Inc.), where the values of flow and pressure were registered and transformed into digital signals recorded by a computer software program (Medical Breath Analyser™ from Aerocrine AB, Sweden). The recordings were instantly visualized on a computer screen, which enabled the subjects to maintain a certain flow (i.e. 0.15 l/s), adjusting the exhalation to the flow curve. A fraction of the exhaled air was aspirated into the NO analyzer (Eco Physics Inc., Model CLD 700 AL) at a flow rate of approximately 0.5 l/min, through a 110-cm narrow-bore and Teflon®-coated tube connected to the mouthpiece. The detected NO levels were passed on to the computer and integrated with the figures for flow and pressure for calculation of NO release rate (pmol/s) and NO amount (pmol). NO release was calculated by the formula: NO-conc×Q=pmol/s×l/s=pmol/s. The conversion of NO-conc in ppb to a molecular unit goes via the fact that the volume of 1 mol of NO takes up 24.445 liters at normal temperature and pressure. Given this 1 ppb NO equals 40.908 pM. At the flow of 0.15 l/s and e.g. a NO-conc of 10 ppb the NO release equals 67 pmol/s. The use of NO-release, instead of NO-concentration as a registration unit, has the advantage of taking the flow rate into account, whereas in the use of NO-concentration the exhalation flow is not taken into consideration. In addition to the curves for flow and pressure two curves for NO concentration and NO release were plotted on the screen and calculated mean values were presented for the last 40% of the breath, representing the plateau phase. NO amount was also presented for the first 40%, representing the area under curve for the peak.
In order to further manipulate with the conditions in the oral cavity and perhaps influence the formation of NO from salivary nitrite different mouthwashes were introduced in the study. On a separate day, from that of the nitrate load, the ten subjects volunteered to have their NO in exhaled air measured after rinsing their mouth with distilled water, sodium bicarbonate-, ascorbic acid- and, nitrite solutions in named order. Further, a mouthwash with Chlorhexidine acetate 0.2% was included in the study.
In the first series of mouthwashes 5 baseline measurements with a breathhold were performed to obtain a reference value. In fact, all measurements in this part of the experiment were done with a breathhold, for the reasons described above. […]

[4] = test system: NO synthesis in the oral cavity; conditions: prior treatment with mouthwash, healthy volunteers; cited from earlier work
NO formation from saliva = test system: NO formation from saliva
Procedure: On another occasion the subjects were asked to produce 10 ml of saliva, without time restriction, by again chewing on a piece of Teflon®-plastic. Half of this, i.e. 5 ml, was put in a 50 ml plastic syringe with an addition of 0.5 ml distilled water and closed with a three-way stopcock after filling it up with 50 ml of room air. The remaining 5 ml were mixed with 0.5 ml 20 mM nitrite solution (resulting in a salivary nitrite concentration of a […]) and put in another syringe filled with 50 ml of room air. The two syringes were put in a warming cupboard with an approximate temperature of 40° C. for 15 min. The air head space from both syringes was then collected in two separate empty 50 ml syringes and it's NO concentration was determined by the NO chemiluminescence analyser.

[5] = 120 min after nitrate ingestion, after breathhold
[6] = immediately after 30 s mouthwash (3 cl), with breathhold, baseline 41.1±3.3, n=10
[7] = immediately after 30 s mouthwash, baseline 497.6±52.7
[8] = 0 min after 30 s mouthwash with 25 ml, n=3

O=[N+]([O-])[O-].[K+] [potassium nitrate]
NO release during the plateau (NO in exhaled air [1]; 120 min after ingestion of 400 mg potassium nitrate, without breathhold, baseline 31.2±3.0, mean±SEM n=10): 77.0 ± 15.2 pmol/s
increase of peak NO amount compared to baseline (NO in exhaled air [1]; [5]): 130%
peak level: total amount NO released during the first 40% of the exhalation (NO in exhaled air [1]; [5]): 819 ± 160.8 pmol
NO release during the plateau (NO in exhaled air [1]; 120 min after nitrate ingestion, with breathhold, baseline 31.9±4.5): 70.8 ± 11.6 pmol/s
increase of plateau NO release compared to baseline (NO in exhaled air [1]; 120 min after nitrate ingestion, without breathhold): ~150%
changes in nasal NO production (nasal NO): no significant changes in NO production
NO release (NO in exhaled air [2]; 90 min after 400 mg potassium nitrate, not fasting, control 34.8±4.2): 60.8 ± 6.4 pmol/s
increase of NO release compared to control levels (NO in exhaled air [2]; 90 min after nitrate load): ~2 fold

O=S(=O)([O-])[O-].[Fe+2] [100 mg FeSO4]
effect on NO output (exhaled NO output): increased NO output

O=C1O[C@H]([C@@H](O)CO)C(O)=C1O [ascorbic acid]
plateau NO release (NO in exhaled air [3]; [6]): 155.0 ± 27.6 pmol/s
peak level of NO (NO in exhaled air [3]; [7]): 2482.5±601.9 ppb
increase of peak concentration (NO in exhaled air [3]; immediately after mouthwash): around 400%
increase of plateau level compared to baseline (NO in exhaled air [3]; immediately after mouthwash): ~300%
effect on NO production [4]: marked elevation in NO production

O=N[O-].[K+] [nitrite solution, potassium nitrite]
NO concentration in head space of incubated saliva (NO formation from saliva; 5 ml saliva + 0.5 ml 20 mM nitrite, about 40° C., 15 min, pure saliva 59.5±29.8): 396.4±138.2 ppb
increase of NO formation versus pure saliva (NO formation from saliva; nitrite added to saliva): more than 500%
increase of plateau NO release compared to baseline (NO in exhaled air [3]; 0.1 M nitrite solution): > 40 fold
peak level of NO (NO in exhaled air [3]; 60 s after 30 s mouthwash): 2812.1±622.1 ppb
plateau NO release (NO in exhaled air [3]; 60 s after 30 s mouthwash): 225.2 ± 44.0 pmol/s
plateau NO release (NO in exhaled air [3]; dose-response rinse, 1 mM nitrite solution, one single-breath after rinsing): 55.0 ± 8.7 pmol/s
plateau NO release (NO in exhaled air [3]; dose-response rinse, 0.1 M nitrite solution): 1791.8 ± 404.8 pmol/s

CC(=O)O.CC(=O)O.NC(=N\CCCCCC/N=C(N)/N=C(\N)Nc1ccc(Cl)cc1)/N=C(\N)Nc1ccc(Cl)cc1 [chlorhexidine acetate]
mean relative change in NO output compared to baseline (exhaled NO output; [8]): −14% at
mean relative change in NO output compared to baseline (exhaled NO output; 5 min after mouthwash): −11% at
mean relative change in NO output compared to baseline (exhaled NO output; 15 min after mouthwash): −5% at
mean relative change in NO output compared to baseline (exhaled NO output; 30 min after mouthwash): −10% at
immediate decrease of NO compared to baseline (NO in exhaled air [3]; 0.2% mouthwash, control (fasting) situation): ~30%
NO release (NO in exhaled air [3]; immediately after 30 s mouthwash with 2.5 cl 0.2%, pH 8.0, separate day, baseline 33.9±2.9): 24.1 ± 3.5 pmol/s
NO release (NO in exhaled air [2]; immediately after 0.2% mouthwash (2.5 cl, 30 s) given 90 min after nitrate load, before mouthwash 60.8±6.4): 33.9 ± 4.3 pmol/s
immediate reduction of NO levels (NO in exhaled air [2]; mouthwash 90 min after nitrate load): ~50%

O=C([O-])O.[Na+] [sodium bicarbonate]
mean relative change in NO output compared to baseline (exhaled NO output; [8]): −7% at
mean relative change in NO output compared to baseline (exhaled NO output; 5 min after mouthwash): −5% at
mean relative change in NO output compared to baseline (exhaled NO output; 15 min after mouthwash): −8% at
mean relative change in NO output compared to baseline (exhaled NO output; 30 min after mouthwash): −8% at
plateau NO release (NO in exhaled air [3]; 120 s after 30 s mouthwash): 34.4 ± 3.6 pmol/s
plateau NO release (NO in exhaled air [3]; [6]): 31.3 ± 3.1 pmol/s
peak level of NO (NO in exhaled air [3]; [7]): 309.2±43.0 ppb
reduction of plateau (NO in exhaled air [2]; mouthwash 180 min after nitrate load): more than 30%
plateau NO release (NO in exhaled air [2]; mouthwash 180 min after nitrate load, before mouthwash 52.7±4.8): 36.2 ± 4.2 pmol/s

OO [1% H2O2, hydrogen peroxide]
effect on NO output (exhaled NO output): increased NO output

polyoxyethylene sorbitan monolaurate [1% Tween-20 ®]
mean relative change in NO output compared to baseline (exhaled NO output; [8]): −9% at
mean relative change in NO output compared to baseline (exhaled NO output; 5 min after mouthwash): −6% at

Source: patent US6626844B1, “Method and composition for inhibition of nitric oxide production in the oral cavity” (Aerocrine AB, priority 1998, dated 2003)
